Where two headings read alike, the source gives them in different places.
Assay: Ascending multiple dose pharmacokinetics of enteric coated capsules in schizophrenic patients
Assay type: in vivo, human
Conditions: for Tmax / half-life / AUC(0-t) / Cmax / AUC(0-inf): plasma
Method: Ascending multiple doses of 100, 150, and 250 mg Compound A.HCl were administered as twice-daily regimen (q12h) for 10 days in cohorts of 8 schizophrenic patients (6 active and 2 placebo). Blood samples for Compound A.HCl analysis were obtained on day 1 within 2 hours of test article administration and at various time points from 0.5 to 24 hours after test article administration. On day 10, blood samples were collected up to 12 hours after dose administration. Doses were administered orally after an overnight fast of at least 10 hours on these 2 days. Trough PK samples were collected on days 6, 8, and 9 to assess whether steady-state has been reached.
FIGS. 7A and 7B show the relationship between Cmax vs. dose and AUC vs. dose, respectively.

With `Cl.c1cc2c3c(c1)[C@H]1CCC[C@H]1CN3CCNC2` [Compound A.HCl, (9aR,12aS)-4,5,6,7,9,9a,10,11,12,12a-decahydrocyclopenta[c][1,4]diazepino[6,7,1-ij]quinoline hydrochloride] the “relationship between dose and exposure” value (after excluding 2 outlier patients) was “approximately linear”, the “difference in Tmax or t1/2” value (at the 250 mg q12h dose level) was “no significant difference” and the “differences in pharmacokinetics between healthy subjects and schizophrenic patients” value (human, in vivo) was “No significant differences”. For the same compound, the Tmax (human, oral, schizophrenic patients, single and multiple dose administration, enteric-coated formulation, read-out: mean Tmax) was 4 to 5 h, the half-life (human, oral, schizophrenic patients, single dose administration, read-out: mean elimination t1/2) was 480 to 600 min and the AUC(0-t) (human, po, 100 mg, Schizophrenia patients, multiple oral doses (q12 h) 100 mg, day 10, read-out: AUCss (AUC0-12) (Geom. Mean)) was 31.2 ng·h/mL. For the same compound, the AUC(0-t) (human, po, 100 mg, Schizophrenia patients, multiple oral doses (q12 h) 100 mg, day 10, read-out: AUCss (AUC0-12) (Mean)) was about 33.2 ng·h/mL, the Cmax (human, po, 100 mg, Schizophrenia patients, multiple oral doses (q12 h) 100 mg, day 10, read-out: Cmax (Geom. Mean)) was 3.82 ng/mL and the Cmax (human, po, 100 mg, Schizophrenia patients, multiple oral doses (q12 h) 100 mg, day 10, read-out: Cmax (Mean)) was 4 ng/mL. The Tmax (human, po, 100 mg, Schizophrenia patients, multiple oral doses (q12 h) 100 mg, day 10, read-out: Tmax (Geom. Mean)) was 4.6 h, the Tmax (human, po, 100 mg, Schizophrenia patients, multiple oral doses (q12 h) 100 mg, day 10, read-out: Tmax (Mean)) was 4.8 h and the AUC(0-inf) (human, po, 100 mg, Schizophrenia patients, single oral dose 100 mg, day 1, read-out: AUC0-∞ (Geom. Mean)) was 27.1 ng·h/mL. The AUC(0-inf) (human, po, 100 mg, Schizophrenia patients, single oral dose 100 mg, day 1, read-out: AUC0-∞ (Mean)) was 30.6 ng·h/mL, the Cmax (human, po, 100 mg, Schizophrenia patients, single oral dose 100 mg, day 1, read-out: Cmax (Geom. Mean)) was 2.07 ng/mL and the Cmax (human, po, 100 mg, Schizophrenia patients, single oral dose 100 mg, day 1, read-out: Cmax (Mean)) was 2.21 ng/mL. The Tmax (human, po, 100 mg, Schizophrenia patients, single oral dose 100 mg, day 1, read-out: Tmax (Geom. Mean)) was 4.7 h, the Tmax (human, po, 100 mg, Schizophrenia patients, single oral dose 100 mg, day 1, read-out: Tmax (Mean)) was 4.8 h and the half-life (human, po, 100 mg, Schizophrenia patients, single oral dose 100 mg, day 1, read-out: t1/2 (Geom. Mean) (converted)) was 520 min. It also gave a half-life (human, po, 100 mg, Schizophrenia patients, single oral dose 100 mg, day 1, read-out: t1/2 (Mean) (converted)) of 536 min, an AUC(0-t) (human, po, 150 mg, Schizophrenia patients, multiple oral doses (q12 h) 150 mg, day 10, read-out: AUCss (AUC0-12) (Geom. Mean)) of 51.3 ng·h/mL and an AUC(0-t) (human, po, 150 mg, Schizophrenia patients, multiple oral doses (q12 h) 150 mg, day 10, read-out: AUCss (AUC0-12) (Mean)) of about 54.9 ng·h/mL. For the same compound, the Cmax (human, po, 150 mg, Schizophrenia patients, multiple oral doses (q12 h) 150 mg, day 10, read-out: Cmax (Geom. Mean)) was 6.67 ng/mL, the Cmax (human, po, 150 mg, Schizophrenia patients, multiple oral doses (q12 h) 150 mg, day 10, read-out: Cmax (Mean)) was 7.21 ng/mL and the Tmax (human, po, 150 mg, Schizophrenia patients, multiple oral doses (q12 h) 150 mg, day 10, read-out: Tmax (Geom. Mean)) was 4.2 h. The Tmax (human, po, 150 mg, Schizophrenia patients, multiple oral doses (q12 h) 150 mg, day 10, read-out: Tmax (Mean)) was 4.3 h, the AUC(0-inf) (human, po, 150 mg, Schizophrenia patients, single oral dose 150 mg, day 1, read-out: AUC0-∞ (Geom. Mean)) was 34 ng·h/mL and the AUC(0-inf) (human, po, 150 mg, Schizophrenia patients, single oral dose 150 mg, day 1, read-out: AUC0-∞ (Mean)) was 35.6 ng·h/mL. It also gave a Cmax (human, po, 150 mg, Schizophrenia patients, single oral dose 150 mg, day 1, read-out: Cmax (Geom. Mean)) of 3.09 ng/mL, a Cmax (human, po, 150 mg, Schizophrenia patients, single oral dose 150 mg, day 1, read-out: Cmax (Mean)) of 3.37 ng/mL and a Tmax (human, po, 150 mg, Schizophrenia patients, single oral dose 150 mg, day 1, read-out: Tmax (Geom. Mean)) of 4.2 h. The Tmax (human, po, 150 mg, Schizophrenia patients, single oral dose 150 mg, day 1, read-out: Tmax (Mean)) was 4.6 h, the half-life (human, po, 150 mg, Schizophrenia patients, single oral dose 150 mg, day 1, read-out: t1/2 (Geom. Mean) (converted)) was 555 min and the half-life (human, po, 150 mg, Schizophrenia patients, single oral dose 150 mg, day 1, read-out: t1/2 (Mean) (converted)) was 569 min. It also gave an AUC(0-t) (human, po, 250 mg, Schizophrenia patients, multiple oral doses (q12 h) 250 mg, day 10, read-out: AUCss (AUC0-12) (Geom. Mean)) of 134 ng·h/mL, an AUC(0-t) (human, po, 250 mg, Schizophrenia patients, multiple oral doses (q12 h) 250 mg, day 10, read-out: AUCss (AUC0-12) (Mean)) of about 173 ng·h/mL and a Cmax (human, po, 250 mg, Schizophrenia patients, multiple oral doses (q12 h) 250 mg, day 10, read-out: Cmax (Geom. Mean)) of 15.9 ng/mL. For the same compound, the Cmax (human, po, 250 mg, Schizophrenia patients, multiple oral doses (q12 h) 250 mg, day 10, read-out: Cmax (Mean)) was 20.6 ng/mL, the Tmax (human, po, 250 mg, Schizophrenia patients, multiple oral doses (q12 h) 250 mg, day 10, read-out: Tmax (Mean)) was 4.8 h and the AUC(0-inf) (human, po, 250 mg, Schizophrenia patients, single oral dose 250 mg, day 1, read-out: AUC0-∞ (Geom. Mean)) was 76.1 ng·h/mL. For the same compound, the AUC(0-inf) (human, po, 250 mg, Schizophrenia patients, single oral dose 250 mg, day 1, read-out: AUC0-∞ (Mean)) was 109 ng·h/mL, the Cmax (human, po, 250 mg, Schizophrenia patients, single oral dose 250 mg, day 1, read-out: Cmax (Geom. Mean)) was 5.71 ng/mL and the Cmax (human, po, 250 mg, Schizophrenia patients, single oral dose 250 mg, day 1, read-out: Cmax (Mean)) was 8.89 ng/mL. It also gave a Tmax (human, po, 250 mg, Schizophrenia patients, single oral dose 250 mg, day 1, read-out: Tmax (Geom. Mean)) of 4.7 h, a Tmax (human, po, 250 mg, Schizophrenia patients, single oral dose 250 mg, day 1, read-out: Tmax (Mean)) of 5 h and a half-life (human, po, 250 mg, Schizophrenia patients, single oral dose 250 mg, day 1, read-out: t1/2 (Geom. Mean) (converted)) of 464 min. For the same compound, the half-life (human, po, 250 mg, Schizophrenia patients, single oral dose 250 mg, day 1, read-out: t1/2 (Mean) (converted)) was 482 min.

— patent US20060110451A1, “Formulations of [1,4]diazepino[6,7,1-IJ]quinoline derivatives” (priority 2004, published 2006)
